# Patent US8124793B2, “Derivatives of ethylene methanedisulfonate as cancer chemotherapeutic agents” (priority 2007, dated 2012)
# Experiments:
# Assay type in all cases: cell-based
# LOXIMVI = assay: NCI screen, growth of human tumor cells: Melanoma LOXIMVI; conditions: for % Growth: LOXIMVI
# Summary of the method: (§1)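 At least 60 data points describe each compound tested by NCI. Cancer type, molar concentration in the screen and percent growth make up the recorded data.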
# SU-DAL-7 = assay: NCI screen, growth of human tumor cells: Lymphoma SU-DAL-7
# PC-3 = assay: NCI screen, growth of human tumor cells: Prostate Cancer PC-3
# Summary of the method: as §1
# KD488 = assay: NCI screen, growth of human tumor cells: Lymphoma KD488
# PA682 = assay: NCI screen, growth of human tumor cells: Lymphoma PA682
# HL-60 (TB) = assay: NCI screen, growth of human tumor cells: Leukemia HL-60 (TB); conditions: for % Growth: HL-60(TB)
# Procedure: (§2) In the NCI screening process, each compound was tested and described by a minimum of 60 data points. The test data include, but are not limited to the type of cancer, the molar concentration used in the screen, and the percent growth of the cancer. In some cases, NMR and elemental analysis were used for structural assignment.
# MCF 7 = assay: NCI screen, growth of human tumor cells: Breast Cancer MCF 7
# Summary of the method: as §1
# AS49/ATCC = assay: NCI screen, growth of human tumor cells: Non-Small Cell Lung AS49/ATCC; conditions: A549/ATCC, 10^−4 molar
# Summary of the method: as §1
# RL = assay: NCI screen, growth of human tumor cells: Lymphoma RL
# U-251 = assay: NCI screen, growth of human tumor cells: CNS Cancer U-251
# Summary of the method: as §1
# HCT-15 = assay: NCI screen, growth of human tumor cells: Colon Cancer HCT-15; conditions: for percent of growth of human tumor cells: HCT-15 (Colon Cancer), 10^−4 molar
# Summary of the method: as §1
# HCT-116 = assay: NCI screen, growth of human tumor cells: Colon Cancer HCT-116
# Summary of the method: as §1
# UO-31 = assay: NCI screen, growth of human tumor cells: Renal Cancer UO-31; conditions: UO-31, 10^−4 molar
# Summary of the method: as §1
# M14 = assay: NCI screen, growth of human tumor cells: Melanoma M14; conditions: M14, 10^−4 molar
# Summary of the method: as §1
# HT29 = assay: NCI screen, growth of human tumor cells: Colon Cancer HT29; conditions: for percent of growth of human tumor cells: HT29 (Colon Cancer), 10^−4 molar
# Summary of the method: as §1
# HCC-2998 = assay: NCI screen, growth of human tumor cells: HCC-2998 (listed under Non-Small Cell Lung)
# Summary of the method: as §1
# MDA-MB-231/ATCC = assay: NCI screen, growth of human tumor cells: Breast Cancer MDA-MB-231/ATCC; conditions: for percent of growth of human tumor cells: MDA-MB-231/ATCC (Breast Cancer); for % Growth: MDA-MB-231 (ATCC)
# Summary of the method: as §1
# AS283 = assay: NCI screen, growth of human tumor cells: Lymphoma AS283
# NCI-H226 = assay: NCI screen, growth of human tumor cells: Non-Small Cell Lung NCI-H226
# Summary of the method: as §1
# ACHN = assay: NCI screen, growth of human tumor cells: Renal Cancer ACHN; conditions: ACHN
# Summary of the method: as §1
# EKVX = assay: NCI screen, growth of human tumor cells: Non-Small Cell Lung EKVX; conditions: EKVX, 10^−4 molar
# Summary of the method: as §1
# NCI-H460 = assay: NCI screen, growth of human tumor cells: Non-Small Cell Lung NCI-H460
# Summary of the method: as §1
# HS 578T = assay: NCI screen, growth of human tumor cells: Breast Cancer HS 578T; conditions: HS 578T (Breast Cancer), 10^−4 molar
# Summary of the method: as §1
# SK-OV-3 = assay: NCI screen, growth of human tumor cells: Ovarian Cancer SK-OV-3; conditions: SK-OV-3, 10^−4 molar
# Summary of the method: as §1
# MDA-N = assay: NCI screen, growth of human tumor cells: Breast Cancer MDA-N; conditions: 10^−4 molar
# Summary of the method: as §1
# RXF-393 = assay: NCI screen, growth of human tumor cells: Renal Cancer RXF-393
# Summary of the method: as §1
# SW620 = assay: NCI screen, growth of human tumor cells: Colon Cancer SW620
# Summary of the method: as §1
# T-47D = assay: NCI screen, growth of human tumor cells: Breast Cancer T-47D; conditions: 10^−4 molar; for percent of growth of human tumor cells: T-47D (Breast Cancer)
# Procedure: as §2
compound,measurement,setting,value
"Cc1ccc2ccccc2c1CC1S(=O)(=O)OCCOS1(=O)=O [NSC 679043, ethylene 2-methyl-1-naphyl-1,1-ethanedisulfonate]",% Growth,LOXIMVI; 10^−4 molar,−84%
same,% Growth,LOXIMVI; 10^−5 molar,45%
same,% Growth,"SU-DAL-7; SU-DAL-7, 10^−4 molar",−44%
same,% Growth,"SU-DAL-7; SU-DAL-7, 10^−5 molar",14%
same,% Growth,"PC-3; PC-3, 10^−4 molar",−91%
same,% Growth,"PC-3; PC-3, 10^−5 molar",57%
same,% Growth,"KD488; KD488, 10^−4 molar",−45%
same,% Growth,"KD488; KD488, 10^−5 molar",30%
same,% Growth,"KD488; KD488, 10^−6 molar",62%
same,% Growth,"KD488; KD488, 10^−7 molar",54%
same,% Growth,"PA682; PA682, 10^−4 molar",−33%
same,% Growth,"PA682; PA682, 10^−5 molar",45%
same,% Growth,HL-60 (TB); 10^−4 molar,−49%
same,% Growth,HL-60 (TB); 10^−5 molar,−33%
same,% Growth,"MCF 7; MCF7, 10^−4 molar",−78%
same,% Growth,"MCF 7; MCF7, 10^−5 molar",45%
same,% Growth,AS49/ATCC,−77%
same,% Growth,RL; 10^−4 molar,−45%
same,% Growth,RL; 10^−5 molar,33%
same,% Growth,"U-251; U251, 10^−4 molar",−96%
same,percent of growth of human tumor cells,HCT-15,−49%
same,% Growth,"HCT-116; HCT-116, 10^−4 molar",−99%
same,% Growth,"HCT-116; HCT-116, 10^−5 molar",15%
same,% Growth,UO-31,−100%
same,% Growth,M14,−78%
same,% Growth,"HT29; HT-29, 10^−4 molar",−95%
same,% Growth,"HT29; HT-29, 10^−5 molar",57%
same,% Growth,"HCC-2998; HCC-2998, 10^−4 molar",−88%
same,% Growth,"HCC-2998; HCC-2998, 10^−5 molar",22%
same,percent of growth of human tumor cells,MDA-MB-231/ATCC; 10^−4 molar,−12%
same,% Growth,"AS283; AS283, 10^−4 molar",−34%
same,% Growth,"AS283; AS283, 10^−5 molar",37%
same,% Growth,"NCI-H226; NCI-H226, 10^−4 molar",−63%
same,% Growth,"NCI-H226; NCI-H226, 10^−5 molar",49%
same,% Growth,ACHN; 10^−4 molar,−90%
same,% Growth,EKVX,−98%
"CC1=C(CC2S(=O)(=O)OCCOS2(=O)=O)C(=O)c2ccccc2C1=O [NSC 693874, ethylene (3-methyl-1,4-naphtho-2-quinoyl)-1,1-ethanedisulfonate]",% Growth,LOXIMVI; 10^−4 molar,−95%
same,% Growth,LOXIMVI; 10^−5 molar,35%
same,% Growth,"NCI-H460; NCI-H460, 10^−4 molar",−73%
same,% Growth,"NCI-H460; NCI-H460, 10^−5 molar",59%
same,% Growth,"PC-3; PC-3, 10^−4 molar",−80%
same,% Growth,"MCF 7; MCF7, 10^−4 molar",−83%
same,% Growth,"MCF 7; MCF7, 10^−5 molar",56%
same,percent of growth of human tumor cells,HS 578T,−21%
same,% Growth,AS49/ATCC,−93%
same,% Growth,"U-251; U251, 10^−4 molar",−25%
same,% Growth,"U-251; U251, 10^−5 molar",57%
same,% Growth,SK-OV-3,−75%
same,% Growth,UO-31,−97%
same,% Growth,"HCC-2998; HCC-2998, 10^−4 molar",−100%
same,% Growth,"HCC-2998; HCC-2998, 10^−5 molar",50%
same,percent of growth of human tumor cells,MDA-MB-231/ATCC; 10^−4 molar,−22%
same,percent of growth of human tumor cells,MDA-N,−59%
same,% Growth,"NCI-H226; NCI-H226, 10^−4 molar",−82%
same,% Growth,"NCI-H226; NCI-H226, 10^−5 molar",48%
same,% Growth,ACHN; 10^−4 molar,−100%
same,% Growth,ACHN; 10^−5 molar,50%
same,% Growth,EKVX,−93%
CC(=O)C1(CC2=C(C)C(=O)c3ccccc3C2=O)S(=O)(=O)OCCOS1(=O)=O [NSC 701690],% Growth,LOXIMVI; 10^−4 molar,−100%
same,% Growth,LOXIMVI; 10^−5 molar,36%
same,% Growth,"RXF-393; RXF-393, 10^−4 molar",−69%
same,% Growth,"NCI-H460; NCI-H460, 10^−4 molar",−100%
same,% Growth,"NCI-H460; NCI-H460, 10^−5 molar",42%
same,% Growth,"PC-3; PC-3, 10^−4 molar",−38%
same,% Growth,"PC-3; PC-3, 10^−5 molar",52%
same,% Growth,"PC-3; PC-3, 10^−6 molar",59%
same,% Growth,"PC-3; PC-3, 10^−7 molar",28%
same,% Growth,"PC-3; PC-3, 10^−8 molar",28%
same,% Growth,"SW620; SW620, 10^−4 molar",−100%
same,% Growth,"SW620; SW620, 10^−5 molar",23%
same,% Growth,"SW620; SW620, 10^−6 molar",54%
same,% Growth,"MCF 7; MCF7, 10^−4 molar",−100%
same,% Growth,AS49/ATCC,−97%
same,% Growth,"U-251; U251, 10^−4 molar",−100%
same,% Growth,"U-251; U251, 10^−5 molar",42%
same,% Growth,"U-251; U251, 10^−6 molar",53%
same,% Growth,"U-251; U251, 10^−7 molar",46%
same,% Growth,"U-251; U251, 10^−8 molar",62%
same,percent of growth of human tumor cells,T-47D,−54%
same,% Growth,T-47D; T-47D,−54%
same,% Growth,"HCT-15; HCT-15, 10^−4 molar",−100%
same,% Growth,"HCT-116; HCT-116, 10^−4 molar",−100%
same,% Growth,UO-31,−92%
same,% Growth,M14,−100%
same,percent of growth of human tumor cells,HT29,−25%
same,% Growth,"HCC-2998; HCC-2998, 10^−4 molar",−100%
same,% Growth,MDA-MB-231/ATCC; 10^−4 molar,−41%
same,% Growth,MDA-MB-231/ATCC; 10^−5 molar,39%
same,% Growth,MDA-MB-231/ATCC; 10^−6 molar,56%
same,% Growth,MDA-MB-231/ATCC; 10^−7 molar,58%
same,% Growth,MDA-MB-231/ATCC; 10^−8 molar,45%
same,% Growth,ACHN; 10^−4 molar,−77%
same,% Growth,EKVX,−91%
CC1(C)OCC(COC(=O)C(=O)C2(Cc3ccc4c(c3)C(=O)c3ccccc3C4=O)S(=O)(=O)OCCOS2(=O)=O)O1 (centres unmarked) [NSC 737276],percent of growth of human tumor cells,"LOXIMVI; LOXIMVI (Melanoma), 10^−4 molar",−48%
same,percent of growth of human tumor cells,"RXF-393; RXF-393 (Renal Cancer), 10^−4 molar",−54%
same,percent of growth of human tumor cells,"NCI-H460; NCI-H460 (Non-Small Cell Lung), 10^−4 molar",−59%
same,% Growth,"PC-3; PC-3, 10^−4 molar",−68%
same,% Growth,"SW620; SW620, 10^−4 molar",−74%
same,percent of growth of human tumor cells,"HL-60 (TB); HL-60 (TB) (Leukemia), 10^−4 molar",−3%
same,percent of growth of human tumor cells,"MCF 7; MCF 7 (Breast Cancer), 10^−4 molar",−59%
same,percent of growth of human tumor cells,HS 578T,17%
same,percent of growth of human tumor cells,"U-251; U-251 (CNS Cancer), 10^−4 molar",−53%
same,percent of growth of human tumor cells,T-47D,−39%
same,% Growth,SK-OV-3,−67%
same,percent of growth of human tumor cells,HCT-15,−12%
same,% Growth,"HCT-116; HCT-116, 10^−4 molar",−86%
same,% Growth,UO-31,−81%
same,percent of growth of human tumor cells,HT29,−25%
same,% Growth,"HCC-2998; HCC-2998, 10^−4 molar",−96%
same,percent of growth of human tumor cells,MDA-MB-231/ATCC; 10^−4 molar,−9%
same,percent of growth of human tumor cells,"NCI-H226; NCI-H226 (Non-Small Cell Lung), 10^−4 molar",10%
same,% Growth,ACHN; 10^−4 molar,−82%
same,% Growth,EKVX,−81%
